Measurements: patent US12115221B2, “Pickering emulsion stabilized by cellulose nanocrystals from ginkgo seed shells and preparation method thereof” (Jiangnan University, priority 2019, dated 2024)

Test: Degradation rate of curcumin on storage
Type: physicochemical
Conditions: storage at room temperature for 7 days
Procedure: Curcumin was dissolved in an oil phase. The CNCs with low aspect ratio obtained in the Example 6 were diluted to 0.3 wt %, and an emulsion was prepared according to the oil-water ratio of 1:9. Subsequently, high-speed shearing was carried out at 10000 rpm for 2 min using high-speed shearing equipment to obtain a coarse emulsion, and then the coarse emulsion was circulated 4 times at 30 MPa using a high-pressure homogenizer to obtain the final Pickering emulsion. Determination of degradation rate of curcumin: a certain volume of emulsion was taken; the emulsion was mixed with ethanol in a ratio of 1:1; the mixture was centrifuged at 11000 rpm for 5 min; the supernatant was collected; and the absorbance at 426 nm was measured. Formula of degradation rate: Degradation rate (100%)=m1/m2×100, wherein m1 is the mass of curcumin after the emulsion is placed, and m2 is the mass of curcumin before the emulsion is placed.

degradation rate of curcumin: 80%
SMILES: COc1cc(/C=C/C(=O)CC(=O)/C=C/c2ccc(O)c(OC)c2)ccc1O [curcumin in the aqueous solution, Curcumin]
